Results as given in ChEMBL document CHEMBL4184185, “Dihydrobenzisoxazole-4-one compounds are novel selective inhibitors of aldosterone synthase (CYP11B2) with in vivo activity” (Bioorg Med Chem Lett, 2018).
The source made the active and inactive calls. The rule behind the calls is not given here.

How the values were obtained:
[1] = Clearance in human liver microsomes relative to hepatic blood flow; format: ADME, microsome; conditions: read-out: CLH
Macaca fascicularis [2] = species: Macaca fascicularis; experiment: Selectivity index, ratio of IC50 for cynomolgus monkey adrenal mitochondrial CYP11B1 to IC50 for cynomolgus monkey adrenal mitochondrial CYP11B2
[3] = Inhibition of cynomolgus monkey adrenal mitochondrial CYP11B1 using 11-deoxycortisol as substrate after 90 mins in presence of NADPH by mass spectrometric analysis
[4] = biological target: T1, Steroid 17-alpha-hydroxylase/17,20 lyase (Homo sapiens, UniProt P05093); experiment: Inhibition of CYP17A1 (unknown origin); format: ADME
T1 sequence (P05093 whole entry): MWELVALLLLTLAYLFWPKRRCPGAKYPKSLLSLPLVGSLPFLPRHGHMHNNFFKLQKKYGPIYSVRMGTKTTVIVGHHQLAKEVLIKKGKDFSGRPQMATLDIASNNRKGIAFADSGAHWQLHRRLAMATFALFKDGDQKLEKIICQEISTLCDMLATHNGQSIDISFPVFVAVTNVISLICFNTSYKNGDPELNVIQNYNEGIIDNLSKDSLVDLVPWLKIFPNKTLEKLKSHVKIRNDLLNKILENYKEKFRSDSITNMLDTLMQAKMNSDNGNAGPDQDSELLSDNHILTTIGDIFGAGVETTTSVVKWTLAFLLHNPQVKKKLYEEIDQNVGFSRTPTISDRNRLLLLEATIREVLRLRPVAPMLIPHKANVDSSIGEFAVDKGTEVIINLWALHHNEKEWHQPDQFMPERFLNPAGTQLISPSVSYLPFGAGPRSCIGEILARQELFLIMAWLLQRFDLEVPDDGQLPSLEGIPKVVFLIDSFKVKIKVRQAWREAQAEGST

[5] = Inhibition of cynomolgus monkey adrenal mitochondrial CYP11B2 using corticosterone as substrate after 60 mins in presence of NADPH by mass spectrometric analysis
Aromatase [6] = biological target: T2, Aromatase (Homo sapiens, UniProt P11511); experiment: Inhibition of CYP19A1 (unknown origin)
T2 sequence (P11511 whole entry): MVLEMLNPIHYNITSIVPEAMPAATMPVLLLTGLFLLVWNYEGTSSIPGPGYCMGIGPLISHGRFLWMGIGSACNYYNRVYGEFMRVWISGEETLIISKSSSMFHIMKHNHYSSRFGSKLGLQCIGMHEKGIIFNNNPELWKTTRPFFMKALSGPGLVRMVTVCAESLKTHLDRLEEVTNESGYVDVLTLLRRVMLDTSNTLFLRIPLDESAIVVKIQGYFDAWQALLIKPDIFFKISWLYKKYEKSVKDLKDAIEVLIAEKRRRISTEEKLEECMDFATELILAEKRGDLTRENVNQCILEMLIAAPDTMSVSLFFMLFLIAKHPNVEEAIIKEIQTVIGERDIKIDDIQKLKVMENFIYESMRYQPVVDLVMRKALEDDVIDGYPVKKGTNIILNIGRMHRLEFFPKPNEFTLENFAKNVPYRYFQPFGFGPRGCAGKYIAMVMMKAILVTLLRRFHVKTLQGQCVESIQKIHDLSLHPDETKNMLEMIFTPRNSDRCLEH

[7] = biological target: T3, Cytochrome P450 11B2, mitochondrial (Homo sapiens, UniProt P19099); experiment: Inhibition of recombinant human CYP11B2 expressed in Chinese hamster V79MZ cells assessed as reduction in aldosterone production by mass spectrometric method; format: cell-based
T3 sequence (P19099 whole entry): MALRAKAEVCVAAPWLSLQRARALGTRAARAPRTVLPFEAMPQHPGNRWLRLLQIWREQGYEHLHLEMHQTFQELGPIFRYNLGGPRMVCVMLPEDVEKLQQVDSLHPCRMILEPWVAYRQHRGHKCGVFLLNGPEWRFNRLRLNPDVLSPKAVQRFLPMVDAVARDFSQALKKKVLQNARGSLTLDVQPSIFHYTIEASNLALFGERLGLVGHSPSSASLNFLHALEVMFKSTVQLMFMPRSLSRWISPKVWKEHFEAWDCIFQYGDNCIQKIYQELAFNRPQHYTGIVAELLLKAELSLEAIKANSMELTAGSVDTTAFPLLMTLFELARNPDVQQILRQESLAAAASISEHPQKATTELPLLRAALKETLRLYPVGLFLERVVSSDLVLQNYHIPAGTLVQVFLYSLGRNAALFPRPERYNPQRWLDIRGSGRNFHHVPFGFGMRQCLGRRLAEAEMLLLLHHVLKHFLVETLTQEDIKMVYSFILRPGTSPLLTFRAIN

Macaca fascicularis [8] = species: Macaca fascicularis; experiment: Inhibition of cynomolgus monkey adrenal mitochondrial CYP11B2 at 1 uM using corticosterone as substrate after 60 mins in presence of NADPH by mass spectrometric analysis
[9] = biological target: T3, Cytochrome P450 11B2, mitochondrial; experiment: Inhibition of recombinant human CYP11B2 expressed in Chinese hamster V79MZ cells assessed as reduction in aldosterone production at 20 uM by mass spectrometric method; format: cell-based
Aromatase [10] = biological target: T2, Aromatase; experiment: Inhibition of CYP19A1 (unknown origin) at 20 uM
Cytochrome P450 3A4 = Cytochrome P450 3A4 (Homo sapiens, UniProt P08684); experiment: Inhibition of CYP3A4 (unknown origin) at 30 uM; format: ADME
Cytochrome P450 3A4, sequence (P08684 whole entry): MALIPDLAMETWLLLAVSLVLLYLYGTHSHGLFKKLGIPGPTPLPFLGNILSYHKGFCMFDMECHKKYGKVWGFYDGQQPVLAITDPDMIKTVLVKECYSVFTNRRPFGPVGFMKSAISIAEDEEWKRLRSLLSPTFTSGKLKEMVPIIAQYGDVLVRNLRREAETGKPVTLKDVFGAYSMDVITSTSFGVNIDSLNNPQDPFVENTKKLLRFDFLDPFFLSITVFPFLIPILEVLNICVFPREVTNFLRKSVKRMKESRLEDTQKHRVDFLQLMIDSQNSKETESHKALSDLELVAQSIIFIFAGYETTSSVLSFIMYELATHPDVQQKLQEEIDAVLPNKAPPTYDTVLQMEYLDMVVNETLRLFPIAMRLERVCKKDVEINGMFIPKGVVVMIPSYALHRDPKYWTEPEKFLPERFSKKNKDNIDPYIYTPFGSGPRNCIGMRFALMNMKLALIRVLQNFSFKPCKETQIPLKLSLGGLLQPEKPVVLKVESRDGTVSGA

Cytochrome P450 2D6 = Cytochrome P450 2D6 (Homo sapiens, UniProt P10635); experiment: Inhibition of CYP2D6 (unknown origin) at 30 uM; format: ADME
Cytochrome P450 2D6, sequence (P10635 whole entry): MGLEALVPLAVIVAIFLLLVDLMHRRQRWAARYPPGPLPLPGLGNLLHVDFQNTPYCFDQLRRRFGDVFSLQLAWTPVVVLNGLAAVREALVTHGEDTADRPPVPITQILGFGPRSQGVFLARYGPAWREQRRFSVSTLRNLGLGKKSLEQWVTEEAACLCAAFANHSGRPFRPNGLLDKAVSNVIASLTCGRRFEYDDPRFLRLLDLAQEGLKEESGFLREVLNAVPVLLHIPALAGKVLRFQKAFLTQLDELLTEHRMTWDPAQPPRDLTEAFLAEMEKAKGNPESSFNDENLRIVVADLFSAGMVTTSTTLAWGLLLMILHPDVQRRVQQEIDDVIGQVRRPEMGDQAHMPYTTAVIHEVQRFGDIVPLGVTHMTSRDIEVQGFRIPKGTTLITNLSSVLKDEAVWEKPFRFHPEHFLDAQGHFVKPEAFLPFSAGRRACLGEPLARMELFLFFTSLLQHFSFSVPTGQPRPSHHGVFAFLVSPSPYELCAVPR

[11] = biological target: T1, Steroid 17-alpha-hydroxylase/17,20 lyase; experiment: Inhibition of CYP17A1 (unknown origin) at 20 uM; format: ADME
Cytochrome P450 2C9 = Cytochrome P450 2C9 (Homo sapiens, UniProt P11712); experiment: Inhibition of CYP2C9 (unknown origin) at 30 uM; format: ADME
Cytochrome P450 2C9, sequence (P11712 whole entry): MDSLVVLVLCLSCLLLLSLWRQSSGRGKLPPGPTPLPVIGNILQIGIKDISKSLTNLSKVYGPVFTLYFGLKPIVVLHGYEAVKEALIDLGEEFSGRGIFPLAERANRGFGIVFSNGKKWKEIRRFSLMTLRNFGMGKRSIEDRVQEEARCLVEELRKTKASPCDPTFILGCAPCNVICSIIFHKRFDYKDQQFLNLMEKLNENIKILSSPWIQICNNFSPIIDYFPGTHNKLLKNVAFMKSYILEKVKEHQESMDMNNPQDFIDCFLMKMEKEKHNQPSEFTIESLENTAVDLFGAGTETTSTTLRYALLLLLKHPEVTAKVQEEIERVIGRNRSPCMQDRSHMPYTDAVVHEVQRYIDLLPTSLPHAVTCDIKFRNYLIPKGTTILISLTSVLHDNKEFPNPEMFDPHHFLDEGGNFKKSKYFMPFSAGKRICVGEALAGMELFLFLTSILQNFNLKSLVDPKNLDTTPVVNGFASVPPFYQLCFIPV

[12] = Clearance in human hepatocytes relative to hepatic blood flow; format: ADME, cell-based, Hepatocyte; conditions: read-out: CLH
Rattus norvegicus = experiment: Clearance in iv dosed Wistar Han rat relative to hepatic blood flow; format: ADME, organism-based; conditions: in vivo
[13] = Clearance in Wistar Han rat hepatocytes relative to hepatic blood flow; format: ADME, cell-based, Hepatocyte; conditions: read-out: CLH
[14] = Clearance in cynomolgus monkey hepatocytes relative to hepatic blood flow; format: ADME, cell-based, Macaca fascicularis, Hepatocyte; conditions: read-out: CLH
[15] = Oral bioavailability in Wistar Han rat; format: ADME, organism-based; conditions: in vivo
Cynomolgus monkey = experiment: Clearance in iv dosed cynomolgus monkey relative to hepatic blood flow; format: ADME, organism-based, Macaca fascicularis; conditions: in vivo
[16] = Drug metabolism in human hepatocytes assessed as parent compound remaining at 10 uM after 30 mins by LC-MS/MS analysis; format: ADME, cell-based, Hepatocyte; conditions: read-out: Stability
[17] = Drug metabolism in human hepatocytes assessed as 3-(4-fluorobenzyl)-6,6-dimethyl-4,5,6,7-tetrahydrobenzo[c]isoxazol-4-ol formation at 10 uM after 30 mins by LC-MS/MS analysis; format: ADME, cell-based, Hepatocyte; conditions: 0.5 h
[18] = Drug metabolism in human hepatocytes at 10 uM after 30 mins by LC-MS/MS analysis; format: ADME, cell-based, Hepatocyte; conditions: read-out: Drug metabolism
[19] = Drug metabolism in human hepatocytes assessed as 3-Amino-2-[2-(4-fluoro-phenyl)-acetyl]-5,5-dimethyl-cyclohex-2-enone metabolite formation at 10 uM after 30 mins by HPLC analysis; format: ADME, cell-based, Hepatocyte; conditions: 0.5 h
[20] = Drug metabolism in human hepatocytes assessed as 3-Amino-2-[2-(4-fluoro-phenyl)-acetyl]-5,5-dimethyl-cyclohex-2-enone metabolite formation at 10 uM after 30 mins by LC-MS/MS analysis; format: ADME, cell-based, Hepatocyte; conditions: 0.5 h
[21] = biological target: T3, Cytochrome P450 11B2, mitochondrial; experiment: Inhibition of recombinant human CYP11B2 expressed in Chinese hamster V79MZ cells assessed as reduction in aldosterone production at 1 uM by mass spectrometric method; format: cell-based
[22] = Clearance in Beagle dog hepatocytes relative to hepatic blood flow; format: ADME, cell-based, Canis lupus familiaris, Hepatocyte; conditions: read-out: CLH
Canis familiaris = experiment: Clearance in iv dosed Beagle dog relative to hepatic blood flow; format: ADME, organism-based, Canis lupus familiaris; conditions: in vivo
[23] = Oral bioavailability in Beagle dog; format: ADME, organism-based, Canis lupus familiaris; conditions: in vivo

Row | SMILES | hepatic extraction ratio [1] | Ratio IC50 (Macaca fascicularis [2]) | pIC50 [3] | pIC50 [5] | further results
1 | CC1(C)CC(=O)c2c(noc2-c2ccccc2)C1 | 0.85 | < 53 | 4.3 | < 6 | IC50 [4]: > 31.6 µM
2 | CC1CC(=O)c2c(noc2Cc2ccc(C#N)cc2)C1 (centres undefined) | 0.38 | 39 | 5.1 | 6.7 | 
3 | CN1C(=O)CCc2cc(-c3cccnc3)ccc21 |  | 230 | 6 | 8.4 | IC50 (Aromatase [6]): 0.1 µM; IC50 [4]: 0.316 µM
4 | COc1ccc(Cc2onc3c2C(=O)CC(C)(C)C3)cc1 | 0.86 | 95 | 5.8 | 7.8 | IC50 (Aromatase [6]): > 31.6 µM; IC50 [4]: > 31.6 µM
5 | CC1(C)CC(=O)c2c(noc2Cc2ccc(C#N)cc2)C1 | 0.55 | 940 | 4.1 | 7.1 | inhibition (INH) [7]: Active
6 | CC1(C)Cc2noc(Cc3ccc(F)cc3)c2C(O)C1 (centres undefined) |  |  |  |  | inhibition (Macaca fascicularis [8]): inactive
7 | CC1(C)CCc2c(noc2Cc2ccc(C#N)cc2)C1 | 0.37 | 17 | 5.5 | 6.8 | 
8 | Clc1ccc(-n2ccnc2)cc1Cl |  |  |  | 7.2 | inhibition (INH) [9]: Not Active
9 | CC1(C)CC(=O)c2c(noc2Cc2ccccc2)C1 | 0.64 | 100 | 5.1 | 7.1 | inhibition (INH) [7]: Active; inhibition (INH) (Aromatase [10]): Not Active; inhibition (INH) (Cytochrome P450 3A4): Not Active; inhibition (INH) (Cytochrome P450 2D6): Not Active; IC50 (Aromatase [6]): > 31.6 µM; inhibition (INH) [11]: Not Active; inhibition (INH) (Cytochrome P450 2C9): Not Active; IC50 [4]: > 31.6 µM; IC50 [5]: 0.079 µM
10 | CC1(C)CC(=O)c2c(noc2Cc2ccc(C(N)=O)cc2)C1 | 0.33 | 150 | 4.8 | 7 | hepatic extraction ratio [12]: 0.33; inhibition (INH) (Aromatase [10]): Not Active; CL (Rattus norvegicus): 62%; inhibition (INH) (Cytochrome P450 3A4): Not Active; hepatic extraction ratio [13]: 0.6; inhibition (INH) (Cytochrome P450 2D6): Not Active; hepatic extraction ratio [14]: 0.22; IC50 (Aromatase [6]): > 20 µM; bioavailability [15]: 8%; inhibition (INH) (Cytochrome P450 2C9): Not Active; CL (Cynomolgus monkey): 57%; remaining at 0.5 h, 10 µM [16]: 55%
11 | CC1(C)CC(=O)C(C(=O)Cc2ccc(F)cc2)=C(N)C1 |  |  |  |  | inhibition (Macaca fascicularis [8]): inactive
12 | CN1CCN(C(=O)c2ccc(Cc3onc4c3C(=O)CC(C)(C)C4)cc2)CC1=O | < 0.24 | 64 | 5 | 6.8 | hepatic extraction ratio [12]: 0.41; inhibition (INH) (Aromatase [10]): Not Active; inhibition (INH) (Cytochrome P450 3A4): Not Active; inhibition (INH) (Cytochrome P450 2D6): Not Active; IC50 (Aromatase [6]): > 31.6 µM; inhibition (INH) (Cytochrome P450 2C9): Not Active
13 | CC1CC(=O)c2c(noc2Cc2ccccc2)C1 (centres undefined) | 0.73 | 130 | 5.5 | 7.6 | 
14 | CC1(C)CC(=O)c2c(ncn2Cc2ccccc2)C1 |  |  |  | 7 | 
15 | CC1(C)CC(=O)c2c(noc2Cc2ccc(S(C)(=O)=O)cc2)C1 | < 0.24 | 42 | 5.4 | 7.1 | hepatic extraction ratio [12]: 0.59; IC50 [4]: > 31.6 µM
16 | Clc1ccc(-c2ccn[nH]2)cc1Cl |  |  |  | 5.3 | inhibition (INH) [9]: Not Active
17 | CC1(C)CC(=O)c2c(noc2Cc2ccc(F)cc2)C1 | < 0.24 | 130 | 4.7 | 6.8 | hepatic extraction ratio [12]: 0.91; Drug metabolism [17]: Metabolite_Detected; metabolised at 0.5 h, 10 µM [18]: 72%; Drug metabolism [19]: Metabolite_Detected; Drug metabolism [20]: Metabolite_Detected; remaining at 0.5 h, 10 µM [16]: 28%
18 | CC1(C)CC(=O)c2c(n[nH]c2Cc2ccc(C#N)cc2)C1 |  |  |  | < 6 | inhibition at 1 µM [21]: 54%
19 | N#Cc1ccc([C@H]2CCc3cncn32)c(F)c1 [OSILODROSTAT] |  |  | 7.4 | 7.7 | IC50 [4]: 3.98 µM
20 | N#Cc1ccc(Cc2onc3c2C(=O)CC(C2CC2)C3)cc1 (centres undefined) | 0.83 | 15 | 5.6 | 6.8 | 
21 | CC1(C)CC(=O)c2c(noc2Cc2ccc(C(=O)N3CC[C@@H](O)C3)cc2)C1 | < 0.24 | 160 | 5 | 7 | hepatic extraction ratio [22]: < 0.3; hepatic extraction ratio [12]: < 0.24; inhibition (INH) (Aromatase [10]): Not Active; CL (Rattus norvegicus): 31%; inhibition (INH) (Cytochrome P450 3A4): Not Active; hepatic extraction ratio [13]: 0.52; CL (Canis familiaris): 35%; inhibition (INH) (Cytochrome P450 2D6): Not Active; hepatic extraction ratio [14]: 0.28; bioavailability [23]: 85%; IC50 (Aromatase [6]): > 20 µM; bioavailability [15]: 11%; inhibition (INH) (Cytochrome P450 2C9): Not Active; CL (Cynomolgus monkey): 75%; remaining at 0.5 h, 10 µM [16]: 98%
22 | O=C1CCCc2noc(Cc3ccccc3)c21 | 0.73 | 32 | 4.6 | 6.1 | 
23 | Clc1ccc(-c2ccno2)cc1Cl |  |  |  | < 4.7 | inhibition (INH) [9]: Not Active
